Assay results: PubChem BioAssay (NCI)
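Five concentrations, 48 hours, 96-well plates. TGI marks complete inhibition of growth.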

Tests used:
Experiment in all cases: inhibition of tumour cell growth, NCI panel, 48 h
786-0 renal = test system: 786-0 renal
A498 renal = test system: A498 renal
A549 NSCLC = test system: A549 NSCLC
ACHN renal = test system: ACHN renal
BT-549 breast = test system: BT-549 breast
CAKI-1 renal = test system: CAKI-1 renal
CCRF-CEM leukemia = test system: CCRF-CEM leukemia
COLO 205 colon = test system: COLO 205 colon
DU-145 prostate = test system: DU-145 prostate
EKVX NSCLC = test system: EKVX NSCLC
HCC-2998 colon = test system: HCC-2998 colon
HCT-116 colon = test system: HCT-116 colon
HCT-15 colon = test system: HCT-15 colon
HL-60(TB) leukemia = test system: HL-60(TB) leukemia
HOP-62 NSCLC = test system: HOP-62 NSCLC
HOP-92 NSCLC = test system: HOP-92 NSCLC
HS 578T breast = test system: HS 578T breast
HT29 colon = test system: HT29 colon
IGROV1 ovarian = test system: IGROV1 ovarian
K-562 leukemia = test system: K-562 leukemia
KM12 colon = test system: KM12 colon
LOX IMVI melanoma = test system: LOX IMVI melanoma
M14 melanoma = test system: M14 melanoma
MALME-3M melanoma = test system: MALME-3M melanoma
MCF7 breast = test system: MCF7 breast
MDA-MB-231 breast = test system: MDA-MB-231 breast
MDA-MB-435 = test system: MDA-MB-435
MDA-N = test system: MDA-N
MOLT-4 leukemia = test system: MOLT-4 leukemia
NCI-H226 lung = test system: NCI-H226 lung
NCI-H23 lung = test system: NCI-H23 lung
NCI-H460 lung = test system: NCI-H460 lung
NCI-H522 lung = test system: NCI-H522 lung
NCI/ADR-RES ovarian = test system: NCI/ADR-RES ovarian
OVCAR-3 ovarian = test system: OVCAR-3 ovarian
OVCAR-4 ovarian = test system: OVCAR-4 ovarian
OVCAR-5 ovarian = test system: OVCAR-5 ovarian
OVCAR-8 ovarian = test system: OVCAR-8 ovarian
PC-3 prostate = test system: PC-3 prostate
RPMI-8226 leukemia = test system: RPMI-8226 leukemia
RXF 393 renal = test system: RXF 393 renal
SF-268 CNS = test system: SF-268 CNS
SF-295 CNS = test system: SF-295 CNS
SF-539 CNS = test system: SF-539 CNS
SK-MEL-2 melanoma = test system: SK-MEL-2 melanoma
SK-MEL-28 melanoma = test system: SK-MEL-28 melanoma
SK-MEL-5 melanoma = test system: SK-MEL-5 melanoma
SK-OV-3 ovarian = test system: SK-OV-3 ovarian
SN12C renal = test system: SN12C renal
SNB-19 CNS = test system: SNB-19 CNS
SNB-75 CNS = test system: SNB-75 CNS
SR leukemia = test system: SR leukemia
SW-620 colon = test system: SW-620 colon
T-47D breast = test system: T-47D breast
TK-10 renal = test system: TK-10 renal
U251 CNS = test system: U251 CNS
UACC-257 melanoma = test system: UACC-257 melanoma
UACC-62 melanoma = test system: UACC-62 melanoma
UO-31 renal = test system: UO-31 renal

`COc1ccc(O)c(/C=N/NC(=S)N2CCCCC2)c1` gave a TGI (786-0 renal) greater than 78.2 µM, a TGI (A498 renal) greater than 41.5 µM and a TGI (A549 NSCLC) greater than 100 µM. For the same compound, the TGI (ACHN renal) was 23.3 µM, the TGI (BT-549 breast) was greater than 94.8 µM and the TGI (CAKI-1 renal) was greater than 84.1 µM. The TGI (CCRF-CEM leukemia) was greater than 47.8 µM, the TGI (COLO 205 colon) was greater than 100 µM and the TGI (DU-145 prostate) was greater than 43.1 µM. The TGI (EKVX NSCLC) was greater than 65.3 µM, the TGI (HCC-2998 colon) was 19.6 µM and the TGI (HCT-116 colon) was greater than 100 µM. The TGI (HCT-15 colon) was greater than 100 µM, the TGI (HL-60(TB) leukemia) was greater than 23.1 µM and the TGI (HOP-62 NSCLC) was greater than 20.1 µM. For the same compound, the TGI (HOP-92 NSCLC) was 50.8 µM, the TGI (HS 578T breast) was greater than 100 µM and the TGI (HT29 colon) was greater than 92.3 µM. For the same compound, the TGI (IGROV1 ovarian) was greater than 67.4 µM, the TGI (K-562 leukemia) was greater than 21.8 µM and the TGI (KM12 colon) was greater than 100 µM. For the same compound, the TGI (LOX IMVI melanoma) was greater than 46 µM, the TGI (M14 melanoma) was 10.9 µM and the TGI (MALME-3M melanoma) was 37.3 µM. The TGI (MCF7 breast) was greater than 100 µM, the TGI (MDA-MB-231 breast) was greater than 100 µM and the TGI (MDA-MB-435) was greater than 100 µM. For the same compound, the TGI (MDA-N) was greater than 100 µM, the TGI (MOLT-4 leukemia) was greater than 100 µM and the TGI (NCI-H226 lung) was 7.96 µM. It also gave a TGI (NCI-H23 lung) of 20.4 µM, a TGI (NCI-H460 lung) greater than 30.1 µM and a TGI (NCI-H522 lung) greater than 62.7 µM. The TGI (NCI/ADR-RES ovarian) was greater than 23.2 µM, the TGI (OVCAR-3 ovarian) was greater than 13.4 µM and the TGI (OVCAR-4 ovarian) was greater than 100 µM. The TGI (OVCAR-5 ovarian) was greater than 100 µM, the TGI (OVCAR-8 ovarian) was greater than 43.1 µM and the TGI (PC-3 prostate) was greater than 100 µM. For the same compound, the TGI (RPMI-8226 leukemia) was greater than 27.2 µM, the TGI (RXF 393 renal) was greater than 100 µM and the TGI (SF-268 CNS) was 62.9 µM. It also gave a TGI (SF-295 CNS) greater than 100 µM, a TGI (SF-539 CNS) greater than 100 µM and a TGI (SK-MEL-2 melanoma) greater than 100 µM. For the same compound, the TGI (SK-MEL-28 melanoma) was greater than 83.4 µM, the TGI (SK-MEL-5 melanoma) was 30.9 µM and the TGI (SK-OV-3 ovarian) was greater than 100 µM. For the same compound, the TGI (SN12C renal) was greater than 100 µM, the TGI (SNB-19 CNS) was greater than 94.9 µM and the TGI (SNB-75 CNS) was greater than 100 µM. It also gave a TGI (SR leukemia) greater than 24.5 µM, a TGI (SW-620 colon) greater than 100 µM and a TGI (T-47D breast) greater than 89.5 µM. For the same compound, the TGI (TK-10 renal) was greater than 100 µM, the TGI (U251 CNS) was greater than 100 µM and the TGI (UACC-257 melanoma) was greater than 100 µM. For the same compound, the TGI (UACC-62 melanoma) was 23.8 µM and the TGI (UO-31 renal) was 6.22 µM.
Work on `CCOC(=O)/C=C(/C(=O)OCC)n1cc(C)c(=O)n(/C(=C/C(=O)OCC)C(=O)OCC)c1=O` yielded a TGI (786-0 renal) of 2.56 µM, a TGI (A498 renal) of 36.8 µM and a TGI (A549 NSCLC) of 31.8 µM. The TGI (ACHN renal) was 4.08 µM, the TGI (BT-549 breast) was 15.9 µM and the TGI (CAKI-1 renal) was 2.14 µM. For the same compound, the TGI (CCRF-CEM leukemia) was 1.53 µM, the TGI (COLO 205 colon) was 2.87 µM and the TGI (DU-145 prostate) was 26.6 µM. The TGI (EKVX NSCLC) was 13.9 µM, the TGI (HCC-2998 colon) was 22.1 µM and the TGI (HCT-116 colon) was 4.88 µM. For the same compound, the TGI (HCT-15 colon) was 4.01 µM, the TGI (HL-60(TB) leukemia) was 0.674 µM and the TGI (HOP-62 NSCLC) was 43.3 µM. For the same compound, the TGI (HOP-92 NSCLC) was 2.91 µM, the TGI (HS 578T breast) was 45.7 µM and the TGI (HT29 colon) was 7.72 µM. It also gave a TGI (IGROV1 ovarian) of 17 µM, a TGI (K-562 leukemia) of 3.81 µM and a TGI (KM12 colon) of 30.1 µM. For the same compound, the TGI (LOX IMVI melanoma) was 7.59 µM, the TGI (M14 melanoma) was 6.48 µM and the TGI (MALME-3M melanoma) was 4.36 µM. The TGI (MCF7 breast) was 5.5 µM, the TGI (MDA-MB-231 breast) was 9.01 µM and the TGI (MDA-MB-435) was 7.76 µM. It also gave a TGI (MDA-N) of 13.7 µM, a TGI (MOLT-4 leukemia) of 5.78 µM and a TGI (NCI-H226 lung) of 12.6 µM. It also gave a TGI (NCI-H23 lung) of 12.9 µM, a TGI (NCI-H460 lung) of 37.1 µM and a TGI (NCI-H522 lung) of 1.88 µM. It also gave a TGI (NCI/ADR-RES ovarian) of 26.1 µM, a TGI (OVCAR-3 ovarian) of 7.7 µM and a TGI (OVCAR-4 ovarian) greater than 22.3 µM. It also gave a TGI (OVCAR-5 ovarian) of 14.3 µM, a TGI (OVCAR-8 ovarian) of 13 µM and a TGI (PC-3 prostate) of 12.3 µM. The TGI (RPMI-8226 leukemia) was 4.52 µM, the TGI (RXF 393 renal) was 3.73 µM and the TGI (SF-268 CNS) was 32.8 µM. It also gave a TGI (SF-295 CNS) of 33.5 µM, a TGI (SF-539 CNS) of 23.5 µM and a TGI (SK-MEL-2 melanoma) of 33 µM. The TGI (SK-MEL-28 melanoma) was 5.04 µM, the TGI (SK-MEL-5 melanoma) was 20.8 µM and the TGI (SK-OV-3 ovarian) was 31.5 µM. The TGI (SN12C renal) was 8.58 µM, the TGI (SNB-19 CNS) was 36.3 µM and the TGI (SNB-75 CNS) was 24 µM. The TGI (SR leukemia) was 5.72 µM, the TGI (SW-620 colon) was 3.03 µM and the TGI (T-47D breast) was 7.86 µM. It also gave a TGI (TK-10 renal) of 4.06 µM, a TGI (U251 CNS) of 19.3 µM and a TGI (UACC-257 melanoma) of 10.9 µM. It also gave a TGI (UACC-62 melanoma) of 19.4 µM and a TGI (UO-31 renal) of 10.8 µM.
